Results from ChEMBL document CHEMBL1201862, “PubChem BioAssay data set” (2004).
Values belong to the compound of their own block, whether it stands above or below them. Active and inactive are the calls of the source.

Columns and labels:
A549 = experiment: viability loss in A549 cells – cell-based, plate reader, cherry-pick samples, cytotoxicity control, dose response (AID 687028); type: functional; details: Homo sapiens
[1] = biological target: T1, Beta-2 adrenergic receptor (Homo sapiens, UniProt P07550); experiment: ADRB2 activation measured by internalization – cell-based, FAP fluorogen, flow cytometry, cherry pick 1, dose response (AID 588763); type: functional
Cytochrome P450 2C9 = Cytochrome P450 2C9 (Homo sapiens, UniProt P11712)
[2] = biological target: Tyrosine-protein phosphatase non-receptor type 11 (Homo sapiens, UniProt Q06124); experiment: PTPN11 enzyme inhibitors – biochemical, selectivity assay for STEP inhibitor project, dose response (AID 602367); type: functional; details: read-out: IC50_Mean
[3] = biological target: Tyrosine-protein phosphatase non-receptor type 5 (Homo sapiens, UniProt P54829); experiment: PTPN5 enzyme inhibition – biochemical, fluorescence intensity, uHTS hits, confirmation (AID 602372); type: functional; details: read-out: IC50_Mean
[4] = biological target: Protein-tyrosine kinase 2-beta (Homo sapiens, UniProt Q14289);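 further: potency of inhibitors of PYK2 kinase phosphorylation of poly-GT substrate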
[5] = biological target: T1, Beta-2 adrenergic receptor; experiment: Dose response for HTS for Beta-2AR agonists via FAP method from Powderset1.; type: functional
[6] = biological target: Dual specificity protein phosphatase 3 (Homo sapiens, UniProt P51452); experiment: VHR phosphatase inhibition, dose response, selectivity assay for STEP inhibitor project, biochemical (AID 602374); type: functional; details: read-out: IC50_Mean
[7] = biological target: T2, Tyrosine-protein phosphatase non-receptor type 7 (Homo sapiens, UniProt P35236); experiment: HePTP tyrosine phosphatase activity blockers – biochemical, absorbance, leukemia target, primary screen (AID 521); type: functional
T2 sequence (P35236 whole entry): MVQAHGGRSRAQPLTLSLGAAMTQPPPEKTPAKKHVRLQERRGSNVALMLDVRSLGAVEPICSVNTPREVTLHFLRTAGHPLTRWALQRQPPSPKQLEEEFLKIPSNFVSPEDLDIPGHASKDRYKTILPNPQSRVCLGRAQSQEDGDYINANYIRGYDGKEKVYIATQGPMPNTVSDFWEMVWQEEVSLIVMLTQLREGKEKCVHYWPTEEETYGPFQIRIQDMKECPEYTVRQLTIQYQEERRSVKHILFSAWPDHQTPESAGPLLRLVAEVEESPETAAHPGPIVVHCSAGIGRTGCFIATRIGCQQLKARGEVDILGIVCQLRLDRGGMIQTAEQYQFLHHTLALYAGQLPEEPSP

[8] = biological target: ADP-ribosylation factor GTPase-activating protein 1 (Rattus norvegicus, UniProt Q62848); experiment: Fluorescence polarization-based biochemical high throughput dose response screening assay to identify inhibitors of ADP-ribosylation factor GTPase activating protein 1 (ARFGAP1).; type: functional
Steroidogenic factor 1 = Steroidogenic factor 1 (Homo sapiens, UniProt Q13285); experiment: Counterscreen for inverse agonists of the liver receptor homolog-1 (LRH-1; NR5A2): Luminescence-based cell-based high throughput dose response assay to identify inverse agonists of the Steroidogenic Factor 1 Nuclear Receptor (SF1; NR5A1).; type: functional
[9] = nonselective StAR promoter luciferase inhibitors – cell-based, luminescence, luciferase reporter, counter-screen for LRH-1 inverse agonist project, dose response (AID 651969); type: functional
[10] = biological target: Nuclear receptor subfamily 5 group A member 2 (Homo sapiens, UniProt O00482); type: functional, cell-based;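 further: HEK293T cells transfected with LRH-1 and a StAR promoter luciferase reporter; potency for inhibitors that lower LRH-1 driven reporter light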
[11] = biological target: Arf-GAP with SH3 domain, ANK repeat and PH domain-containing protein 1 (Homo sapiens, UniProt Q9ULH1); type: functional;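 further: biochemical fluorescence polarization dose–response screen measuring inhibition of ASAP1; ASAP1 GAP domain stimulating GTP hydrolysis by truncated human ARF1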
[12] = biological target: T3, Sentrin-specific protease 1 (Homo sapiens, UniProt Q9P0U3); experiment: Dose response confirmation of small molecule inhibitors of the catalytic domain of the SUMO protease, SENP1 in a FRET assay.; type: functional; details: read-out: IC50_Mean
[13] = biological target: T3, Sentrin-specific protease 1; experiment: SENP1 catalytic domain blockers, concentration series – biochemical, kinetic FRET, dose response (AID 651697); type: functional; details: read-out: IC50_Mean

T3 sequence (Q9P0U3 whole entry, the tested form may be a part): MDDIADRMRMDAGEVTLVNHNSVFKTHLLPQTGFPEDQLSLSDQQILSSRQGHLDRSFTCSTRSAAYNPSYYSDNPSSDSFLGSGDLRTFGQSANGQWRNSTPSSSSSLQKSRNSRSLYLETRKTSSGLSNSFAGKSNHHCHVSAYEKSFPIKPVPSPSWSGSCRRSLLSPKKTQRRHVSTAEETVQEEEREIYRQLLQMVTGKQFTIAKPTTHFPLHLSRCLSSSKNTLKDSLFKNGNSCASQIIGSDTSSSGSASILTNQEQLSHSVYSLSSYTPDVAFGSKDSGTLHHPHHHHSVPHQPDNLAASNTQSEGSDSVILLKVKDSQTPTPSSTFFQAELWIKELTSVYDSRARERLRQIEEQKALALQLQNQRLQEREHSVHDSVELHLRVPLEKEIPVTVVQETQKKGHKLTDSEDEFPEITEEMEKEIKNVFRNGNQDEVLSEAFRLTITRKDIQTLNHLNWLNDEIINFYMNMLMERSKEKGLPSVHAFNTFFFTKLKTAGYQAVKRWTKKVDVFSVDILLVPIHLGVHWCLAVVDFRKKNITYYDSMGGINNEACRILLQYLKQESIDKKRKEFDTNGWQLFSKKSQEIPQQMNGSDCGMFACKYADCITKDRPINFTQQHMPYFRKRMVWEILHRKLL
T1 sequence (P07550 whole entry): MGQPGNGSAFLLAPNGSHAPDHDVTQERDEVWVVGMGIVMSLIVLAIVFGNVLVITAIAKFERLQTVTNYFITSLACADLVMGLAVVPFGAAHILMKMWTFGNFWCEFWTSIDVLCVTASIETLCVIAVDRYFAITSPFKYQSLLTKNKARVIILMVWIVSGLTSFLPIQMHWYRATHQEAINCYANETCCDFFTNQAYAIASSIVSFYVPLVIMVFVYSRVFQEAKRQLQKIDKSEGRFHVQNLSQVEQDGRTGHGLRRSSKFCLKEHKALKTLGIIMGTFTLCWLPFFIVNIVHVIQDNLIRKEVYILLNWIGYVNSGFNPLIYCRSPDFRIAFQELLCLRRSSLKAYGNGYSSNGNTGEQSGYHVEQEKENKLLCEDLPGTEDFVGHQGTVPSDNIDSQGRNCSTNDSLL
Sequence of Dual specificity protein phosphatase 3 (P51452 whole entry): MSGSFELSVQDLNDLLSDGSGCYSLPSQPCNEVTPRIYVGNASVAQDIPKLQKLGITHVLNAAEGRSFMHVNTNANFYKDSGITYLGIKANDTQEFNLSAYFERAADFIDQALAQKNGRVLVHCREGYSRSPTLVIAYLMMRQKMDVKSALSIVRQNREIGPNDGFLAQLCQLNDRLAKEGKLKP
Sequence of ADP-ribosylation factor GTPase-activating protein 1 (Q62848 whole entry): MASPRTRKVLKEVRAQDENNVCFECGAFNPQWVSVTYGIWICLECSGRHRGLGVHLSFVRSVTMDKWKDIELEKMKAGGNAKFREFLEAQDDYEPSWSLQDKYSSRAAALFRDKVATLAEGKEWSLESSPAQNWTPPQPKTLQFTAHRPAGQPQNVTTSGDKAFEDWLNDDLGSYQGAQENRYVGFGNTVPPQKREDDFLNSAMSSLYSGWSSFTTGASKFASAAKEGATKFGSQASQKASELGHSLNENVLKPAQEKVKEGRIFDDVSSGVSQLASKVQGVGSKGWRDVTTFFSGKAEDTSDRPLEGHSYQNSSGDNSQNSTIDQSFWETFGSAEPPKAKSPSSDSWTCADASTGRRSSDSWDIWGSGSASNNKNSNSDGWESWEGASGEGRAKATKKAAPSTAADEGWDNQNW
Sequence of Nuclear receptor subfamily 5 group A member 2 (O00482 whole entry, the tested form may be a part): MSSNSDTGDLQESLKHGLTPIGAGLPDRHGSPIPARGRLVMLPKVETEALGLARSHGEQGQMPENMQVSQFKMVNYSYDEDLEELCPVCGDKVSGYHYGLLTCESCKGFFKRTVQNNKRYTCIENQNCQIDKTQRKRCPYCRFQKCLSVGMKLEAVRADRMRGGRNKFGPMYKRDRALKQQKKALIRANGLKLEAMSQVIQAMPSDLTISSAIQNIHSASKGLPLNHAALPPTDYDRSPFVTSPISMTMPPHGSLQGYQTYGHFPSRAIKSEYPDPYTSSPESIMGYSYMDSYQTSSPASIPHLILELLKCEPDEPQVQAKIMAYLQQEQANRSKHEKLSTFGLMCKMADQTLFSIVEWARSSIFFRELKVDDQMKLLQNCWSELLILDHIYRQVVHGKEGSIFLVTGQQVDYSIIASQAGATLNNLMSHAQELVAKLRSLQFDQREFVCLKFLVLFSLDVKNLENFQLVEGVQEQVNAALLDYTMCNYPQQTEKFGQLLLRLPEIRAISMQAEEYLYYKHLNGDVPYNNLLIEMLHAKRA
Sequence of Tyrosine-protein phosphatase non-receptor type 5 (P54829 whole entry): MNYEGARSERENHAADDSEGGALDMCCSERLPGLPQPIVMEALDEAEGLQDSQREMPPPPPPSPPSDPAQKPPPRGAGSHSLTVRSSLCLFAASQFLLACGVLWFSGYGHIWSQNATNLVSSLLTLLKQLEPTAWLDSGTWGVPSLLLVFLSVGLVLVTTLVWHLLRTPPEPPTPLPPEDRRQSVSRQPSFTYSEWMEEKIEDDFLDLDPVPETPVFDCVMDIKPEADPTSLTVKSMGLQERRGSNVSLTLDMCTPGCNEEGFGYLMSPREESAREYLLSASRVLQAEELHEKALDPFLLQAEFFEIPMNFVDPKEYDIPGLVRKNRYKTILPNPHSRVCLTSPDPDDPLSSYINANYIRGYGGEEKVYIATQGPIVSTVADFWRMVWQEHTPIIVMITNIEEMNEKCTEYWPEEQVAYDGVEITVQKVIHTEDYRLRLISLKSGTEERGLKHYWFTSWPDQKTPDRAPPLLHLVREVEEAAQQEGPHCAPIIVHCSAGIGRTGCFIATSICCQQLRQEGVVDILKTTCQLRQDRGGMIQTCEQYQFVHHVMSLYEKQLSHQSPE
Sequence of Steroidogenic factor 1 (Q13285 whole entry): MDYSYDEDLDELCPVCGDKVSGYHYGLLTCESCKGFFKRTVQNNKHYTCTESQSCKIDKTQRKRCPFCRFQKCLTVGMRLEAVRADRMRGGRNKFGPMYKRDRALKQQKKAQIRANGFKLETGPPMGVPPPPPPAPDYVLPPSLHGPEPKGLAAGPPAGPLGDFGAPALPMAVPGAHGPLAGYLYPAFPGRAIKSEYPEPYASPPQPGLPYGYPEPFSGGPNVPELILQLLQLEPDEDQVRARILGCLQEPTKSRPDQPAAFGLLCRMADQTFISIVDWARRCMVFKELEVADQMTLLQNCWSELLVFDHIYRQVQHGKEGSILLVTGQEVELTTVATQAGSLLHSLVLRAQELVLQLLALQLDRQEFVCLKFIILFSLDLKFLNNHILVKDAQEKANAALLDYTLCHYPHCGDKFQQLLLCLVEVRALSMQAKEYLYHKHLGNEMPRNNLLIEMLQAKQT
Sequence of Arf-GAP with SH3 domain, ANK repeat and PH domain-containing protein 1 (Q9ULH1 whole entry, the tested form may be a part): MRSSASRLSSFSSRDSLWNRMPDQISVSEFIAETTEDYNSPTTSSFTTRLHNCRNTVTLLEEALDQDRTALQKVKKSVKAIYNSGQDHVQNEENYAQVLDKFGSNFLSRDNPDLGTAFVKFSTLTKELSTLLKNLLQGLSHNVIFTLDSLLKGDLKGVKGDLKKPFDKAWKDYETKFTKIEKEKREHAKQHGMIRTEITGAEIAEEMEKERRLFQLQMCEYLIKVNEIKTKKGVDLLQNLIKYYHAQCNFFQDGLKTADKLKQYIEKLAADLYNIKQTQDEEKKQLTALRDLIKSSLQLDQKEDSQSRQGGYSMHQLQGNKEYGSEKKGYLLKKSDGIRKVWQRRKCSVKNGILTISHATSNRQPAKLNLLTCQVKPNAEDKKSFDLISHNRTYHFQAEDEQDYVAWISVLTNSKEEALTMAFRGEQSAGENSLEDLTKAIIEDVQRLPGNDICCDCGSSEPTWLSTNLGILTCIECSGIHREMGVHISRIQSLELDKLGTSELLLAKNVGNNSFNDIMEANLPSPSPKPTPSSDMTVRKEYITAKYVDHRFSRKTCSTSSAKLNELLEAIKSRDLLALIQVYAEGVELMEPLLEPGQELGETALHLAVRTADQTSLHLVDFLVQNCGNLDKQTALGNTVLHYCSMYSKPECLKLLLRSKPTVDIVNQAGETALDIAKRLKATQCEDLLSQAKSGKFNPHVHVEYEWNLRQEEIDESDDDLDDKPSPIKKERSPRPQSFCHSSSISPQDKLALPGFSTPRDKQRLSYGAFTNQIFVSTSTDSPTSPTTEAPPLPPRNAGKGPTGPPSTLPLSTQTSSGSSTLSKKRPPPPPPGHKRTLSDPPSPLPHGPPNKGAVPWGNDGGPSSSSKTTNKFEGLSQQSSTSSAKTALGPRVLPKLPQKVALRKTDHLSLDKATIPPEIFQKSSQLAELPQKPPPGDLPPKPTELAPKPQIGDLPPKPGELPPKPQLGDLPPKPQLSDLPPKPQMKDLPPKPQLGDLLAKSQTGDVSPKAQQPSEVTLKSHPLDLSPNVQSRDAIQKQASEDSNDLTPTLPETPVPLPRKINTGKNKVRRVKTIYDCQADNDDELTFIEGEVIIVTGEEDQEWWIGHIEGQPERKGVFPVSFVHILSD
Sequence of Cytochrome P450 2C9 (P11712 whole entry): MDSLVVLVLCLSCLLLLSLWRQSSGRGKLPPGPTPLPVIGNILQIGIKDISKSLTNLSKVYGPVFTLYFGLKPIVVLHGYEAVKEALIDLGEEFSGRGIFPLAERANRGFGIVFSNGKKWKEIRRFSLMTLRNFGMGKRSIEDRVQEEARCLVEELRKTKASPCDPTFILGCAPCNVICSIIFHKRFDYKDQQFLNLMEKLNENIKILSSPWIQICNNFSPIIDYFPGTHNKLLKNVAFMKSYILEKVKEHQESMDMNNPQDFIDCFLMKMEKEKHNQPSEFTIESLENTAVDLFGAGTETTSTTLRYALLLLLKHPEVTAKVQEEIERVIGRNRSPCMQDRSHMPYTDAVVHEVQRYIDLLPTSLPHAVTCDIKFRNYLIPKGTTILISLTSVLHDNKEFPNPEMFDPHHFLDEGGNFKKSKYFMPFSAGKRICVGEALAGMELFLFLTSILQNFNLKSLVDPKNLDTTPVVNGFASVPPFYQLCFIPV

SMILES: COc1ccc2c3c([nH]c2c1)[C@H](CO)N(C(=O)c1ccccc1)CC31CN(S(=O)(=O)c2cccs2)C1
AC50 (A549): 26 µM (active)

EC50 [1]: 0.476 µM (active)
AC50 (Cytochrome P450 2C9): inconclusive
IC50 [2]: 0.368 µM (active)
IC50 [3]: 3.98 µM (active)
IC50 [4]: > 69.5 µM (not active)
EC50 [5]: 0.261 µM (active)
IC50 [6]: 0.767 µM (active)
IC50 [7]: 5.28 µM (active)
SMILES: CCc1ccc(OCC(=O)Nc2ccc(-c3nc4ccccc4o3)c(O)c2)cc1

IC50 [8]: 53.1 µM (inactive)
SMILES: COc1ccc(NC(=O)Cn2nnc(C(=O)Nc3ccc(F)c(Cl)c3)c2N)cc1

SMILES: COc1ccc(-n2c(N)c(C(=O)NCc3cccnc3)sc2=S)cc1
IC50 (Steroidogenic factor 1): 5.22 µM (active)
IC50 [9]: 35.9 µM (inactive)
IC50 [10]: 35.9 µM (inactive)

IC50 [11]: 11.8 µM (inactive)
SMILES: COc1ccc(-n2nnc3c(=O)n(CC(=O)Nc4ccc5c(c4)OCCO5)cnc32)cc1OC

IC50 [12]: 16.4 µM (active)
IC50 [13]: 12 µM (active)
SMILES: O=C(NC[C@@H]1CCCO1)c1cccc2c1C(=O)c1ccc(N3CCOCC3)cc1S2(=O)=O
